Results as given in publication PMC10726920 (Cancer Medicine, 2023).

System: patients with acute lymphoblastic leukemia
Test: Adverse events (CTCAE version 4.0), Phase II study NCI-9775 of sapanisertib monotherapy
Format: in vivo
Method: Responders could continue on the same dose or proceed to allogeneic hematopoietic cell transplant if available. Non‐responders (but tolerating drug) could increase their dose to 4 mg orally for 21 days every 28 days (dose level + 1) starting in Cycle 3 and 4 mg orally continuously (dose level + 2) starting in Cycle 5 (if they tolerated dose level + 1). Dose reduction was recommended for toxicity (dose level − 1: 2 mg daily for 21 days every 28 days; dose level − 2: 2 mg daily for 5 days/week for 3 weeks every 4 weeks). […] Intrathecal chemotherapy was allowed per institutional standard policies. In‐home blood glucose monitoring was performed daily to monitor blood sugar (a glucometer was given to every patient on the study). Discontinuation of therapy was recommended for disease progression, severe toxicity, lack of response, proceeding to hematopoietic cell transplant, or prolonged delay of the subsequent cycle (>1 month delay for therapy‐related toxicity or >2 months delay for unrelated toxicity).
The primary endpoint was the proportion of successes, which was estimated by the number of successes divided by the total number of evaluable patients. Secondary endpoints of duration of response (CR or CRi) and overall survival (OS) were evaluated using Kaplan–Meier techniques; the frequency of proceeding to allogeneic stem cell transplant after achieving response and adverse events (AEs), as evaluated using reported the NCI Common Terminology Criteria for Adverse Events (CTCAE) version 4.0, were presented using descriptive statistics.

[1] = Grade 3–4, at least possibly related
[2] = Grade >2 hematological, abstract
[3] = grade 3–4 non‐hematologic, abstract
[4] = possibly related, B-Cell, 10 evaluable
[5] = possibly related, T-Cell, 5 evaluable
[6] = treatment-related, 15 evaluable

CC(C)n1nc(-c2ccc3oc(N)nc3c2)c2c(N)ncnc21 [sapanisertib]
patients with a grade 3 or higher AE related to the study drug (15 evaluated): 9 patients
patients with at least 1 grade 3 AE (15 evaluated): 15 patients
anemia, patients [1]: 4
leukocytosis, patients [1]: 1
leukopenia, patients [1]: 2
lymphopenia, patients [1]: 2
neutropenia, patients [1]: 1
thrombocytopenia, patients [1]: 4
abdominal pain, patients (Grade 3–4 treatment‐related): 1
anorexia, patients (Grade 3–4 treatment‐related): 1
bilirubin increase, patients (Grade 3–4 treatment‐related): 1
confusion, patients (Grade 3–4 treatment‐related): 1
delirium, patients (Grade 3–4 treatment‐related): 1
febrile neutropenia, patients (Grade 3–4 treatment‐related): 1
fibrinogen decrease, patients (Grade 3–4 treatment‐related): 1
hyperglycemia, patients (Grade 3–4 treatment‐related): 2
mucositis, patients (Grade 3–4 treatment‐related): 3
pneumonitis, patients (Grade 3–4 treatment‐related): 1
thoracic disease, patients (Grade 3–4 treatment‐related): 1
leukopenia, patients [2]: 3
lymphopenia, patients [2]: 2
neutropenia, patients [2]: 1
thrombocytopenia, patients [2]: 1
patients with at least one grade ≥3 non‐hematologic AE (Six of 11 patients in clearance-toxicity analysis): 54.5%
Hyperglycemia, percent of patients (any grade, discussion): 25%
hyperglycemia, patients (any grade, discussion): 4
Hyperglycemia G2 (discussion): 2 patients
Hyperglycemia G3 (discussion): 2 patients
median time to hyperglycemia (discussion): 6 days
mucositis (discussion): 3 patients
anorexia [3]: 1 patient
confusion [3]: 1 patient
hepatic failure [3]: 1 patient
hyperglycemia [3]: 2 patients
mucositis [3]: 3 patients
pneumonitis [3]: 1 patient
seizures [3]: 1 patient
Abdominal pain grade 3 [4]: 0 (0%) N (%)
Abdominal pain grade 4 [4]: 0 (0%) N (%)
Abdominal pain grade 5 [4]: 0 (0%) N (%)
Anemia grade 3 [4]: 1 (10%) N (%)
Anemia grade 4 [4]: 0 (0%) N (%)
Anemia grade 5 [4]: 0 (0%) N (%)
Anorexia grade 3 [4]: 1 (10%) N (%)
Anorexia grade 4 [4]: 0 (0%) N (%)
Anorexia grade 5 [4]: 0 (0%) N (%)
Confusion grade 3 [4]: 1 (10%) N (%)
Confusion grade 4 [4]: 0 (0%) N (%)
Confusion grade 5 [4]: 0 (0%) N (%)
Fatigue grade 3 [4]: 1 (10%) N (%)
Fatigue grade 4 [4]: 0 (0%) N (%)
Fatigue grade 5 [4]: 0 (0%) N (%)
Febrile neutropenia grade 3 [4]: 1 (10%) N (%)
Febrile neutropenia grade 4 [4]: 0 (0%) N (%)
Febrile neutropenia grade 5 [4]: 0 (0%) N (%)
Hyperglycemia grade 3 [4]: 2 (20%) N (%)
Hyperglycemia grade 4 [4]: 0 (0%) N (%)
Hyperglycemia grade 5 [4]: 0 (0%) N (%)
Leukocytosis grade 3 [4]: 0 (0%) N (%)
Leukocytosis grade 4 [4]: 0 (0%) N (%)
Leukocytosis grade 5 [4]: 0 (0%) N (%)
Lymphocyte count decreased grade 3 [4]: 2 (20%) N (%)
Lymphocyte count decreased grade 4 [4]: 0 (0%) N (%)
Lymphocyte count decreased grade 5 [4]: 0 (0%) N (%)
Mucositis oral grade 3 [4]: 3 (30%) N (%)
Mucositis oral grade 4 [4]: 0 (0%) N (%)
Mucositis oral grade 5 [4]: 0 (0%) N (%)
Neoplasms benign, mal, uncpec - Oth spec grade 3 [4]: 0 (0%) N (%)
Neoplasms benign, mal, uncpec - Oth spec grade 4 [4]: 0 (0%) N (%)
Neoplasms benign, mal, uncpec - Oth spec grade 5 [4]: 0 (0%) N (%)
Neutrophil count decreased grade 3 [4]: 0 (0%) N (%)
Neutrophil count decreased grade 4 [4]: 1 (10%) N (%)
Neutrophil count decreased grade 5 [4]: 0 (0%) N (%)
Platelet count decreased grade 3 [4]: 0 (0%) N (%)
Platelet count decreased grade 4 [4]: 1 (10%) N (%)
Platelet count decreased grade 5 [4]: 0 (0%) N (%)
Pneumonitis grade 3 [4]: 0 (0%) N (%)
Pneumonitis grade 4 [4]: 0 (0%) N (%)
Pneumonitis grade 5 [4]: 0 (0%) N (%)
Resp, thoracic, mediastinal - Oth spec grade 3 [4]: 0 (0%) N (%)
Resp, thoracic, mediastinal - Oth spec grade 4 [4]: 1 (10%) N (%)
Resp, thoracic, mediastinal - Oth spec grade 5 [4]: 0 (0%) N (%)
White blood cell decreased grade 3 [4]: 0 (0%) N (%)
White blood cell decreased grade 4 [4]: 2 (20%) N (%)
White blood cell decreased grade 5 [4]: 0 (0%) N (%)
Abdominal pain grade 3 [5]: 1 (20%) N (%)
Abdominal pain grade 4 [5]: 0 (0%) N (%)
Abdominal pain grade 5 [5]: 0 (0%) N (%)
Anemia grade 3 [5]: 0 (0%) N (%)
Anemia grade 4 [5]: 0 (0%) N (%)
Anemia grade 5 [5]: 0 (0%) N (%)
Anorexia grade 3 [5]: 0 (0%) N (%)
Anorexia grade 4 [5]: 0 (0%) N (%)
Anorexia grade 5 [5]: 0 (0%) N (%)
Confusion grade 3 [5]: 0 (0%) N (%)
Confusion grade 4 [5]: 0 (0%) N (%)
Confusion grade 5 [5]: 0 (0%) N (%)
Fatigue grade 3 [5]: 0 (0%) N (%)
Fatigue grade 4 [5]: 0 (0%) N (%)
Fatigue grade 5 [5]: 0 (0%) N (%)
Febrile neutropenia grade 3 [5]: 0 (0%) N (%)
Febrile neutropenia grade 4 [5]: 0 (0%) N (%)
Febrile neutropenia grade 5 [5]: 0 (0%) N (%)
Hyperglycemia grade 3 [5]: 0 (0%) N (%)
Hyperglycemia grade 4 [5]: 0 (0%) N (%)
Hyperglycemia grade 5 [5]: 0 (0%) N (%)
Leukocytosis grade 3 [5]: 1 (20%) N (%)
Leukocytosis grade 4 [5]: 0 (0%) N (%)
Leukocytosis grade 5 [5]: 0 (0%) N (%)
Lymphocyte count decreased grade 3 [5]: 0 (0%) N (%)
Lymphocyte count decreased grade 4 [5]: 0 (0%) N (%)
Lymphocyte count decreased grade 5 [5]: 0 (0%) N (%)
Mucositis oral grade 3 [5]: 0 (0%) N (%)
Mucositis oral grade 4 [5]: 0 (0%) N (%)
Mucositis oral grade 5 [5]: 0 (0%) N (%)
Neoplasms benign, mal, uncpec - Oth spec grade 3 [5]: 1 (20%) N (%)
Neoplasms benign, mal, uncpec - Oth spec grade 4 [5]: 0 (0%) N (%)
Neoplasms benign, mal, uncpec - Oth spec grade 5 [5]: 0 (0%) N (%)
Neutrophil count decreased grade 3 [5]: 0 (0%) N (%)
Neutrophil count decreased grade 4 [5]: 0 (0%) N (%)
Neutrophil count decreased grade 5 [5]: 0 (0%) N (%)
Platelet count decreased grade 3 [5]: 2 (40%) N (%)
Platelet count decreased grade 4 [5]: 1 (20%) N (%)
Platelet count decreased grade 5 [5]: 0 (0%) N (%)
Pneumonitis grade 3 [5]: 1 (20%) N (%)
Pneumonitis grade 4 [5]: 0 (0%) N (%)
Pneumonitis grade 5 [5]: 0 (0%) N (%)
Resp, thoracic, mediastinal - Oth spec grade 3 [5]: 0 (0%) N (%)
Resp, thoracic, mediastinal - Oth spec grade 4 [5]: 0 (0%) N (%)
Resp, thoracic, mediastinal - Oth spec grade 5 [5]: 0 (0%) N (%)
White blood cell decreased grade 3 [5]: 0 (0%) N (%)
White blood cell decreased grade 4 [5]: 0 (0%) N (%)
White blood cell decreased grade 5 [5]: 0 (0%) N (%)
Abdominal pain grade 1 [6]: 0 (0) N (%)
Abdominal pain grade 2 [6]: 0 (0) N (%)
Abdominal pain grade 3 [6]: 1 (7) N (%)
Abdominal pain grade 4 [6]: 0 (0) N (%)
Abdominal pain grade 5 [6]: 0 (0) N (%)
Anal mucositis grade 1 [6]: 0 (0) N (%)
Anal mucositis grade 2 [6]: 1 (7) N (%)
Anal mucositis grade 3 [6]: 0 (0) N (%)
Anal mucositis grade 4 [6]: 0 (0) N (%)
Anal mucositis grade 5 [6]: 0 (0) N (%)
Anemia grade 1 [6]: 0 (0) N (%)
Anemia grade 2 [6]: 0 (0) N (%)
Anemia grade 3 [6]: 4 (27) N (%)
Anemia grade 4 [6]: 0 (0) N (%)
Anemia grade 5 [6]: 0 (0) N (%)
Anorexia grade 1 [6]: 0 (0) N (%)
Anorexia grade 2 [6]: 1 (7) N (%)
Anorexia grade 3 [6]: 1 (7) N (%)
Anorexia grade 4 [6]: 0 (0) N (%)
Anorexia grade 5 [6]: 0 (0) N (%)
Anxiety grade 1 [6]: 1 (7) N (%)
Anxiety grade 2 [6]: 0 (0) N (%)
Anxiety grade 3 [6]: 0 (0) N (%)
Anxiety grade 4 [6]: 0 (0) N (%)
Anxiety grade 5 [6]: 0 (0) N (%)
Aspartate aminotransferase increased grade 1 [6]: 1 (7) N (%)
